Reference: patent publication US20230250096A1, “SUBSTITUTED PHENYL-1H-PYRROLO[2,3-c] PYRIDINE DERIVATIVES” (Janssen Pharmaceutica NV, priority 2021, published 2023)

Assays:
[1] = target: T1, menin/MLL (terbium chelate-labeled menin, FITC-MBM1 peptide) (Homo sapiens, UniProt O00255, T541A); experiment: Menin/MLL homogenous time-resolved fluorescence (HTRF) assay; assay type: binding; conditions: 30 min incubation
T1 construct: Menin (a.a 1-610-6xhis tag, 2.3 mg/mL in 20 mM Hepes)
T1 sequence (O00255 with tags, fused parts or gaps T541A): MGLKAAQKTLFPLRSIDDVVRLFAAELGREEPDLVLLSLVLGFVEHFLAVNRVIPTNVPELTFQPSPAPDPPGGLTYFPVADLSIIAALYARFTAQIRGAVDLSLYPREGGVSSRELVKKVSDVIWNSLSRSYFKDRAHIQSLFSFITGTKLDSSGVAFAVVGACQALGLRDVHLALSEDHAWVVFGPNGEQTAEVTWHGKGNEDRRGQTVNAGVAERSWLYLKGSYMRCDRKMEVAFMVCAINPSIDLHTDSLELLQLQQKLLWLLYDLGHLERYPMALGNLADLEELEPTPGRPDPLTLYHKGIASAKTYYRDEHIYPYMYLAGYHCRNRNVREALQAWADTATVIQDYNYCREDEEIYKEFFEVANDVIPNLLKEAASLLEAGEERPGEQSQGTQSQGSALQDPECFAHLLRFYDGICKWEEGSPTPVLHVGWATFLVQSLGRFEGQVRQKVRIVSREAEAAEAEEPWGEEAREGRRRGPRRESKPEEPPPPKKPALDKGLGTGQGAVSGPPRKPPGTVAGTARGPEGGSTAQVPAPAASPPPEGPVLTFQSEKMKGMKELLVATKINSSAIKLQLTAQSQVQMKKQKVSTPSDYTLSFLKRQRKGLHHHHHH
Description: 1) Menin/MLL Homogenous Time-Resolved Fluorescence (HTRF) Assay
To an untreated, white 384-well microtiter plate was added 40 nL 200× test compound in DMSO and 4 μL 2× terbium chelate-labeled menin (vide infra for preparation) in assay buffer (40 mM Tris HCl, pH 7.5, 50 mM NaCl. 1 mM DTT (dithiothreitol) and 0.05% Pluronic F-127). After incubation of test compound and terbium chelate-labeled menin for 30 min at ambient temperature, 4 μL 2×FITC-MBM1 peptide (FITC-β-alanine-[…]-NH2) (“FITC” means fluorescein isothiocyanate) in assay buffer was added, the microtiter plate centrifuged at 1000 rpm for 1 min and the assay mixtures incubated for 15 min at ambient temperature. The relative amount of menin FITC-MBM1 complex present in an assay mixture is determined by measuring the homogenous time-resolved fluorescence (HTRF) of the terbium/FITC donor/acceptor fluorphore pair using an EnVision microplate reader (ex. 337 nm/terbium em. 490 nm/FITC em. 520 nm) at ambient temperature. The degree of fluorescence resonance energy transfer (the HTRF value) is expressed as the ratio of the fluorescence emission intensities of the FITC and terbium fluorophores (F^em520 nm/F^em490 nm). The final concentrations of reagents in the binding assay are […] terbium chelate-labeled menin, 75 nM FITC-MBM1 peptide and 0.5% DMSO in assay buffer. Dose-response titrations of test compounds are conducted using an 11 point, four-fold serial dilution scheme, starting typically at 10 μM.
Compound potencies were determined by first calculating % inhibition at each compound concentration according to equation 1:
% inhibition=((HC−LC)−(HTRF^compound−LC))/(HC−LC))*100 (Eqn 1)
Where LC and HC are the HTRF values of the assay in the presence or absence of a saturating concentration of a compound that competes with FITC-MBM1 for binding to menin, and HTRF^compound is the measured HTRF value in the presence of the test compound. HC and LC HTRF values represent an average of at least 10 replicates per plate.
% inhibition=Bottom+(Top−Bottom)/(1+10^((log/C50−log[cmpd])*h)) (Eqn 2)
Where Bottom and Top are the lower and upper asymptotes of the dose-response curve, respectively, IC50 is the concentration of compound that yields 50% inhibition of signal and h is the Hill coefficient.
Preparation of Terbium cryptate labeling of Menin: Menin (a.a 1-610-6xhis tag, 2.3 mg/mL in 20 mM Hepes (2-[4-(2-Hydroxyethyl)-1-piperazinyl]ethane sulfonic acid), 80 mM NaCl, 5 mM DTT (Dithiothreitol), pH 7.5) was labeled with terbium cryptate as follows. 200 μg of Menin was buffer exchanged into 1×Hepes buffer. 6.67 μM Menin was incubated with 8-fold molar excess NHS (N-hydroxysuccinimide)-terbium cryptate for 40 minutes at room temperature. Half of the labeled protein was purified away from free label by running the reaction over a NAP5 column with elution buffer (0.1M Hepes, pH 7+0.1% BSA (bovine serum albumin)). The other half was eluted with 0.1 M phosphate buffered saline (PBS), pH7. 400 μl of eluent was collected for each, aliquoted and frozen at −80° C. The final concentration of terbium-labeled Menin protein was 115 μg/mL in Hepes buffer and 85 μg/mL in PBS buffer, respectively.

MEIS1 mRNA expression = MEIS1 mRNA expression assay (Quantigene Singleplex) in MOLM14 cells; assay type: cell-based, human; conditions: Homo sapiens, MOLM-14, 48 h, 48 hours incubation
Description: 2b) MEIS1 mRNA Expression Assay
MEIS1 mRNA expression upon treatment of compound was examined by Quantigene Singleplex assay (Thermo Fisher Scientific). This technology allows for direct quantification of mRNA targets using probes hybridizing to defined target sequences of interest and the signal is detected using a Multimode plate reader Envision (PerkinElmer). The MOLM14 cell line was used for this experiment. Cells were plated in 96-well plates at 3,750 cells/well in the presence of increasing concentrations of compounds. After incubation of 48 hours with compounds, cells were lysed in lysis buffer and incubated for 45 minutes at 55° C. Cell lysates were mixed with human MEIS specific capture probe or human RPL28 (Ribosomal Protein L28) specific probe as a normalization control, as well as blocking probes. Cell lysates were then transferred to the custom assay hybridization plate (Thermo Fisher Scientific) and incubated for 18 to 22 hours at 55° C. Subsequently, plates were washed to remove unbound materials followed by sequential addition of preamplifiers, amplifiers, and label probe. Signals (═gene counts) were measured with a Multimode plate reader Envision. IC50S were calculated by dose-response modelling using appropriate software. For all non-housekeeper genes response equal counts corrected for background and relative expression. For each sample, each test gene signal (background subtracted) was divided by the normalization gene signal (RPL28: background subtracted). Fold changes were calculated by dividing the normalized values for the treated samples by the normalized values for the DMSO treated sample. Fold changes of each target gene were used for the calculation of IC50S.

Cc1cncc2c1c(C[C@@H]1CCN(C(CCCN3CCC(S(C)(=O)=O)CC3)C(C)C)C1)cn2-c1ccc(F)cc1C(=O)N(C)C(C)C (mixture of isomers) [Compound 10]
IC50 [1]: 0.021 nM | IC50 (MEIS1 mRNA expression): 17 nM

Cc1cncc2c1c(C[C@H]1CCN(C(CCCN3CCC(S(C)(=O)=O)CC3)C(C)C)C1)cn2-c1ccc(F)cc1C(=O)N(C)C(C)C (mixture of isomers) [Compound 11]
IC50 [1]: 0.034 nM | IC50 (MEIS1 mRNA expression): 6 nM

CC(=O)N1C[C@@H]2CN(CCCC(C(C)C)N3CC[C@@H](Cc4cn(-c5ccc(F)cc5C(=O)N(C)C(C)C)c5cncc(C)c45)C3)C[C@H]2C1 (mixture of isomers) [Compound 12]
IC50 [1]: 0.018 nM | IC50 (MEIS1 mRNA expression): 5 nM

CC(=O)N1C[C@@H]2CN(CCCC(C(C)C)N3CC[C@H](Cc4cn(-c5ccc(F)cc5C(=O)N(C)C(C)C)c5cncc(C)c45)C3)C[C@H]2C1 (mixture of isomers) [Compound 13]
IC50 [1]: 0.124 nM | IC50 (MEIS1 mRNA expression): 6 nM

COCCNCCCC(C(C)C)N1CC[C@@H](Cc2cn(-c3ccc(F)cc3C(=O)N(C)C(C)C)c3cncc(C)c23)C1 (mixture of isomers) [Compound 14]
IC50 [1]: 0.054 nM | IC50 (MEIS1 mRNA expression): < 3.6 nM

COCCNCCCC(C(C)C)N1CC[C@H](Cc2cn(-c3ccc(F)cc3C(=O)N(C)C(C)C)c3cncc(C)c23)C1 (mixture of isomers) [Compound 15]
IC50 [1]: 0.04 nM | IC50 (MEIS1 mRNA expression): < 0.8 nM

CCC(CCCN1C[C@H]2CN(C(C)=O)C[C@@H]2C1)N1CC[C@@H](Cc2cn(-c3ccc(F)cc3C(=O)N(C)C(C)C)c3cncc(C)c23)C1 (mixture of isomers) [Compound 16]
IC50 [1]: 0.051 nM | IC50 (MEIS1 mRNA expression): 70 nM

CCC(CCCN1C[C@H]2CN(C(C)=O)C[C@@H]2C1)N1CC[C@H](Cc2cn(-c3ccc(F)cc3C(=O)N(C)C(C)C)c3cncc(C)c23)C1 (mixture of isomers) [Compound 17]
IC50 [1]: 0.031 nM | IC50 (MEIS1 mRNA expression): 48 nM

CC(=O)N1C[C@@H]2CN([C@H]3C[C@@H](C(C(C)C)N4CC[C@@H](Cc5cn(-c6ccc(F)cc6C(=O)N(C)C(C)C)c6cncc(C)c56)C4)C3)C[C@H]2C1 (mixture of isomers) [Compound 20]
IC50 [1]: ~0.19 nM | IC50 (MEIS1 mRNA expression): < 1.7 nM

CCC([C@H]1C[C@@H](N2C[C@H]3CN(C(C)=O)C[C@@H]3C2)C1)N1CC[C@@H](Cc2cn(-c3ccc(F)cc3C(=O)N(C)C(C)C)c3cncc(C)c23)C1 (mixture of isomers) [Compound 22]
IC50 [1]: 0.024 nM | IC50 (MEIS1 mRNA expression): ~11 nM

CCC([C@H]1C[C@@H](N2C[C@H]3CN(C(C)=O)C[C@@H]3C2)C1)N1CC[C@H](Cc2cn(-c3ccc(F)cc3C(=O)N(C)C(C)C)c3cncc(C)c23)C1 (mixture of isomers) [Compound 23]
IC50 [1]: 0.07 nM | IC50 (MEIS1 mRNA expression): 7 nM

CCC([C@H]1C[C@@H](N2CCN(C(C)=O)CC2)C1)N1CC[C@H](Cc2cn(-c3ccc(F)cc3C(=O)N(C)C(C)C)c3cncc(C)c23)C1 (mixture of isomers) [Compound 25]
IC50 [1]: 0.087 nM | IC50 (MEIS1 mRNA expression): 91 nM

CC(=O)N1C[C@@H]2CN([C@H]3C[C@@H](C(C)N4CC[C@@H](Cc5cn(-c6ccc(F)cc6C(=O)N(C)C(C)C)c6cncc(C)c56)C4)C3)C[C@H]2C1 (mixture of isomers) [Compound 28]
IC50 [1]: 0.055 nM | IC50 (MEIS1 mRNA expression): 107 nM

CC(=O)N1CCC(CN2CC[C@@H](Cc3cn(-c4ccc(F)cc4S4(=O)=NCCC4)c4cncc(C)c34)C2)CC1 (mixture of isomers) [Compound 214]
IC50 (MEIS1 mRNA expression): > 1000 nM

CC(=O)N1CCC(N2CC(Cc3cn(-c4ccc(F)cc4C(=O)N(C)C(C)C)c4cncc(C)c34)C2)C[C@H]1C (single isomer, unassigned) [Compound 292a]
IC50 [1]: 0.132 nM

Cc1cncc2c1c(CC1CN([C@@H]3CCN4C(=O)CCC4C3)C1)cn2-c1ccc(F)cc1C(=O)N(C)C(C)C (single isomer, unassigned) [Compound 309a]
IC50 [1]: 1.3 nM

CNC(=O)c1cncc(N2CCC(N3CC(Cc4cn(-c5ccc(OC)cc5C(=O)N(C)C(C)C)c5cncc(C)c45)C3)CC2)n1 [Compound 76]
IC50 [1]: 0.304 nM

CC(=O)N1CCC(N2CC[C@H](Cc3cn(-c4ccc(F)cc4C(=O)N(C)C(C)C)c4cncc(C)c34)C2)CC1 [Compound 156]
IC50 [1]: 0.042 nM

CC(=O)N1CC2CC(N3CC(Cc4cn(-c5ccc(F)cc5C(=O)N(C)C(C)C)c5cncc(C)c45)C3)CC2C1 (stereo not shown) [Compound 294b]
IC50 [1]: 0.077 nM

Cc1cncc2c1c(C[C@@H]1CCN(CC3CCOCC3)C1)cn2-c1ccc(F)cc1C(=O)N1CCC[C@@H]1CO [Compound 361]
IC50 [1]: 0.149 nM

Cc1cncc2c1c(C[C@H]1CN[C@H](C)C1)cn2-c1ccc(F)cc1C(=O)N(C)C(C)C [Compound 503]
IC50 [1]: 10.5 nM

Cc1cncc2c1c(C[C@H]1CN[C@@H](C)C1)cn2-c1ccc(F)cc1C(=O)N(C)C(C)C [Compound 505]
IC50 [1]: 3.11 nM

Cc1cncc2c1c(CC1CCNC1C)cn2-c1ccc(F)cc1C(=O)N(C)C(C)C (stereo not shown) [Compound 507]
IC50 [1]: 6.6 nM

Cc1cncc2c1c(CC1CCNC1C)cn2-c1ccc(F)cc1C(=O)N(C)C(C)C (stereo not shown) [Compound 508]
IC50 [1]: 3.68 nM

Cc1cncc2c1c(CC1CCNC1C)cn2-c1ccc(F)cc1C(=O)N(C)C(C)C (stereo not shown) [Compound 509]
IC50 [1]: 4.53 nM

Cc1cncc2c1c(CC1CCNC1C)cn2-c1ccc(F)cc1C(=O)N(C)C(C)C (stereo not shown) [Compound 510]
IC50 [1]: 2.95 nM

Cc1cncc2c1c(C[C@@H]1CN[C@@H](C)C1)cn2-c1ccc(F)cc1C(=O)N(C)C(C)C [Compound 522]
IC50 [1]: 10.6 nM

COC(=O)c1cc(F)ccc1-n1cc(C[C@@H]2CCN(CC3CCN(C(C)=O)CC3)C2)c2c(C)cncc21 [Compound 528]
IC50 [1]: 0.514 nM

COC(=O)c1cc(F)ccc1-n1cc(C[C@@H]2CCN(CC3CCNC(=O)CC3)C2)c2c(C)cncc21 (stereo partly shown) [Compound 533]
IC50 [1]: 0.808 nM

COC(=O)c1cc(F)ccc1-n1cc(C[C@@H]2CCN(CC3CCOCC3)C2)c2c(C)cncc21 [Compound 534]
IC50 [1]: 0.556 nM
